Source: the NIST ThermoML archive (doi:10.1021/je900759f)

Test: molar heat capacity at constant pressure
Settings: 101.33 kPa, Crystal, Vacuum adiabatic calorimetry

O=C([O-])c1ccccc1C(=O)O.[K+] [potassium 2-carboxybenzoate]
Settings	molar heat capacity at constant pressure [J/K/mol]
78.74 K	81.22
81.08 K	82.76
83.42 K	85
85.62 K	86.29
88.11 K	88.06
90.01 K	90.07
92.06 K	91.25
94.25 K	92.66
96.3 K	94.19
98.21 K	95.73
100.26 K	97.26
102.01 K	98.56
104.21 K	100.09
105.82 K	101.39
107.72 K	102.68
109.48 K	103.75
111.23 K	104.92
112.99 K	106.1
114.45 K	107.52
116.5 K	108.7
118.55 K	109.99
120.9 K	111.65
122.65 K	112.71
126.02 K	114.95
128.9 K	117.28
131.81 K	119.26
134.65 K	120.84
137.63 K	123.15
140.07 K	124.62
143.44 K	126.5
146.3 K	128.75
149.29 K	130.28
152.07 K	132.04
155.1 K	134.02
158.03 K	135.88
161.04 K	137.98
163.86 K	139.4
166.86 K	141.12
169.72 K	142.95
172.65 K	144.78
175.6 K	146.73
178.52 K	148.14
181.46 K	150.06
185.51 K	152.18
189.58 K	154.71
192.49 K	156.69
195.39 K	157.97
198.33 K	160.11
201.39 K	161.41
204.34 K	163.34
207.27 K	164.59
210.19 K	166.59
213.12 K	168.36
216.13 K	169.91
219.11 K	171.34
222.05 K	173.08
224.97 K	174.49
228.05 K	176.26
230.83 K	177.91
233.76 K	178.97
236.83 K	180.98
239.77 K	182.23
243.54 K	184.12
247.46 K	186.25
250.44 K	188.14
253.42 K	189.68
256.45 K	190.76
259.37 K	192.3
262.36 K	193.82
265.34 K	195.71
268.16 K	196.89
271.14 K	198.67
274.12 K	200.21
277.08 K	201.26
280.08 K	203.28
283.06 K	204.58
286.04 K	205.65
289.09 K	207.51
292.02 K	208.57
294.94 K	210.1
298.02 K	211.04
300.8 K	213.17
303.87 K	214.11
306.8 K	215.52
309.73 K	216.94
312.51 K	218.12
315.58 K	219.65
318.36 K	221.3
321.29 K	222.01
324.37 K	223.43
327.29 K	224.96
330.37 K	226.61
333.44 K	228.14
336.37 K	229.67
339.3 K	230.85
342.37 K	232.15
345.3 K	233.33
348.37 K	234.39
351.3 K	236.4
354.23 K	237.46
357.16 K	239.23
360.08 K	240.52
363.01 K	241.35
365.94 K	243
368.87 K	243.71
371.83 K	244.81
374.87 K	246.77
377.94 K	248.3
380.93 K	249.42
383.91 K	250.96
386.89 K	252.02
390.03 K	253.44
393.01 K	254.98
395.98 K	255.93
